Data as given in patent US11401246B2, “Triazole glycolate oxidase inhibitors” (CANTERO THERAPEUTICS, INC., priority 2018, dated 2022).
pIC50: −log10 of the molar value. Structures can show the parent of a compound that is named as a salt. Where two headings read alike, the source gives them in different places.

Molecular target: T1, human glycolate oxidase (hGO) (Homo sapiens, UniProt Q9UJM8)
T1 construct: His-tag (6 histidines, pET-15b) (N); made in house; host or cells: E. coli BL21 (DE3)
T1 sequence (Q9UJM8 1-370): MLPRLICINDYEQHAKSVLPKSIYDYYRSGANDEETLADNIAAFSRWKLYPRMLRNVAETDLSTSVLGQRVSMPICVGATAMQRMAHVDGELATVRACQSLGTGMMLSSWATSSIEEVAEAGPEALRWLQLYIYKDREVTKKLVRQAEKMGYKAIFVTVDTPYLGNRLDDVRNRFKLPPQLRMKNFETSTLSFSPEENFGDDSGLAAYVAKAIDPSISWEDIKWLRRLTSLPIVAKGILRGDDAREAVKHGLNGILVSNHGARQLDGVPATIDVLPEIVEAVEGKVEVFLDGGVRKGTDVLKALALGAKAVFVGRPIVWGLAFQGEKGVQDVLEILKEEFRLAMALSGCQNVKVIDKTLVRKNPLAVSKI
Test: In vitro inhibition of human glycolate oxidase (enzymatic assay, HRP-coupled Trinder reaction);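 as to % Inhibition: values are IC50 potency bins despite the % Inhibition label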
Format: biochemical
Description: The catalytic reactions used for assaying glycolate oxidase activity in the presence of compounds according to the present disclosure are outlined in FIG. 2. Glycolate oxidase (GO)-catalyzed conversion of glycolate to glyoxylate (top reaction), with the concomitant reduction of the cofactor flavin mononucleotide (FMN), uses molecular oxygen (O2) for recovering its oxidative state, releasing hydrogen peroxide (H2O2). The Trinder reaction (bottom reaction), in which horseradish peroxidase (HRP) uses hydrogen peroxide, 4-aminoantipyrine and a phenol derivative (sulphonated DCIP) to generate a quinoneimine dye that is spectrophotometrically measured.
Human glycolate oxidase (hGO) expression. BL21 (DE3) E. coli transformed with recombinant pET-15b expression vector with the N-terminal His-tag human Hao1 cDNA was grown in LB medium in the presence of 0.1 mg/ml ampicillin. For purification of recombinant human glycolate oxidase (hGO) expressed in BL21 E. coli, bacteria pellets were thawed and re-suspended in 2 ml lysis buffer (50 mM NaH2PO4, 300 mM NaCl, 10 mM imidazole, 50 μM FMN, pH 7.5), and then treated for 30 minutes with 1 mM PMSF for protease inhibition, 0.1% Triton X-100 and 0.2 mg/ml lysozyme to break cellular membranes. After sonication, cells were centrifuged and the supernatant containing the total cellular extract (pre-column fraction) was loaded into a Ni-NTA agarose column and incubated for 30 minutes at 4° C. to allow binding of the 6 histidine tail of recombinant GO protein to the nickel ions. The column was washed with two bed volumes of lysis buffer with 20 mM imidazole to eliminate unbound proteins (wash fraction). GO was eluted using the same buffer with 300 mM imidazole. Fraction containing purified GO was dialyzed against 300 ml of dialysis buffer (50 mM NaH2PO4, 300 mM NaCl, pH 7.5) at 4° C. in agitation overnight, and then kept at 4° C. in darkness. Protein were quantified by the bicinchoninic acid (BCA) assay.
Enzymatic assays. Enzymatic activity of hGO was determined in the presence of glycolate as substrate (40 mM glycolic acid) and phosphate buffer (50 mM KPO4, 0.1 mM EDTA, pH 7). The production of glyoxylate was indirectly measured by the quantification of hydrogen peroxide formed during the first oxidation reaction. […] Enzymatic activity was calculated at 1 minute after initiation of the Trinder reaction.

[1] = recombinant hGO, 40 mM glycolic acid, pH 7, read at 515 nm, 1 minute after initiation of Trinder reaction, read-out: % Inhibition

Compound	pIC50 [1]	pIC50
O=C(O)c1nn[nH]c1Oc1ccc(N2CCOCC2)cc1 [Example 1, 5-(4-morpholinophenoxy)-1H-1,2,3-triazole-4-carboxylic Acid]	< 6.70	
O=C(O)c1nn[nH]c1Oc1ccc(N2CCNCC2)cc1 [Example 2, 5-(4-(piperazin-1-yl)phenoxy)-1H-1,2,3-triazole-4-carboxylic Acid]	> 7.00	
CC(=O)N1CCN(c2ccc(Oc3[nH]nnc3C(=O)O)cc2)CC1 [Example 3, 5-(4-(4-acetylpiperazin-1-yl)phenoxy)-1H-1,2,3-triazole-4-carboxylic Acid]	< 6.70	
O=C(O)c1nn[nH]c1Oc1ccc(-n2cccn2)cc1 [Example 4, 5-(4-(1H-pyrazol-1-yl)phenoxy)-1H-1,2,3-triazole-4-carboxylic Acid]	> 7.00	
O=C(O)c1nn[nH]c1Oc1ccccc1Br [Example 5, 5-(2-bromophenoxy)-1H-1,2,3-triazole-4-carboxylic Acid]	< 6.70	
O=C(O)c1nn[nH]c1Oc1ccc(Br)cc1 [Example 6, 5-(4-bromophenoxy)-1H-1,2,3-triazole-4-carboxylic Acid]	> 7.00	
O=C(O)c1nn[nH]c1Oc1cccc(Br)c1 [Example 7, 5-(3-bromophenoxy)-1H-1,2,3-triazole-4-carboxylic Acid]	6.70 to 7.00	
O=C(O)c1nn[nH]c1Oc1ccc(Cl)c(F)c1 [Example 8, 5-(4-chloro-3-fluorophenoxy)-1H-1,2,3-triazole-4-carboxylic Acid]		6.70 to 7.00
O=C(O)c1nn[nH]c1Oc1ccc(F)cc1 [Example 9, 5-(4-fluorophenoxy)-1H-1,2,3-triazole-4-carboxylic Acid Sodium Salt]	< 6.70	
O=C(O)c1nn[nH]c1Oc1ccc(-c2ccc(Br)cc2)cc1 [Example 10, 5-((4′-bromo-[1,1′-biphenyl]-4-yl)oxy)-1H-1,2,3-triazole-4-carboxylic Acid]		> 7.00
O=C(O)c1nn[nH]c1Oc1ccc(-c2cn[nH]c2)cc1 [Example 11, 5-(4-(1H-pyrazol-4-yl)phenoxy)-1H-1,2,3-triazole-4-carboxylic Acid]	6.70 to 7.00	
O=C(O)c1nn[nH]c1Oc1ccc(-c2ccn[nH]2)cc1 [Example 12, 5-(4-(1H-pyrazol-5-yl)phenoxy)-1H-1,2,3-triazole-4-carboxylic Acid]	> 7.00	
Cc1ncc(-c2ccc(Oc3[nH]nnc3C(=O)O)cc2)cn1 [Example 13, 5-(4-(2-methylpyrimidin-5-yl)phenoxy)-1H-1,2,3-triazole-4-carboxylic Acid]	> 7.00	
O=C(O)c1nn[nH]c1Oc1ccc(-c2cccnc2)cc1 [Example 14, 5-(4-(pyridin-3-yl)phenoxy)-1H-1,2,3-triazole-4-carboxylic Acid]	6.70 to 7.00	
O=C(O)c1nn[nH]c1Oc1ccc(-c2ccc(-c3ccncc3)cc2)cc1 [Example 15, 5-((4′-(pyridin-4-yl)-[1,1′-biphenyl]-4-yl)oxy)-1H-1,2,3-triazole-4-carboxylic Acid]	> 7.00	
O=C(O)c1nn[nH]c1Oc1ccc(-c2ccc(-c3cccc(OC(F)F)c3)cc2)cc1 [Example 16, 5-((3″-(difluoromethoxy)-[1,1′:4′,1″-terphenyl]-4-yl)oxy)-1H-1,2,3-triazole-4-carboxylic Acid]	> 7.00	
O=C(O)c1nn[nH]c1Oc1ccc(-c2ccc(-c3ccc(OC(F)F)cc3)cc2)cc1 [Example 17, 5-((4″-(difluoromethoxy)-[1,1′:4′,1″-terphenyl]-4-yl)oxy)-1H-1,2,3-triazole-4-carboxylic Acid]	< 6.70	
O=C(O)c1nn[nH]c1Oc1ccc(-c2cccnc2F)cc1 [Example 18, 5-(4-(2-fluoropyridin-3-yl)phenoxy)-1H-1,2,3-triazole-4-carboxylic Acid]	> 7.00	
O=C(O)c1nn[nH]c1Oc1ccc(-c2ccncc2)cc1 [Example 19, 5-(4-(pyridin-4-yl)phenoxy)-1H-1,2,3-triazole-4-carboxylic Acid]	> 7.00	

Compound	pIC50 [1]	pIC50
N#Cc1cccc(-c2ccc(Oc3[nH]nnc3C(=O)O)cc2)c1 [Example 20, 5-((3′-cyano-[1,1′-biphenyl]-4-yl)oxy)-1H-1,2,3-triazole-4-carboxylic Acid]		6.70 to 7.00
O=C(O)c1nn[nH]c1Oc1ccc(-c2cnn(C3CCC3)c2)cc1 [Example 21, 5-(4-(1-cyclobutyl-1H-pyrazol-4-yl)phenoxy)-1H-1,2,3-triazole-4-carboxylic Acid]	> 7.00	
COc1ccc(-c2ccc(Oc3[nH]nnc3C(=O)O)cc2)cc1 [Example 22, 5-((4′-methoxy-[1,1′-biphenyl]-4-yl)oxy)-1H-1,2,3-triazole-4-carboxylic Acid]		6.70 to 7.00
O=C(O)c1nn[nH]c1Oc1ccc(-c2ccsc2)cc1 [Example 23, 5-(4-(thiophen-3-yl)phenoxy)-1H-1,2,3-triazole-4-carboxylic Acid]	> 7.00	
O=C(O)c1nn[nH]c1Oc1ccc(-c2nccs2)cc1 [Example 25, 5-(4-(thiazol-2-yl)phenoxy)-1H-1,2,3-triazole-4-carboxylic Acid]	6.70 to 7.00	
O=C(O)c1nn[nH]c1Oc1ccc(-c2ncco2)cc1 [Example 26, 5-(4-(oxazol-2-yl)phenoxy)-1H-1,2,3-triazole-4-carboxylic Acid]	6.70 to 7.00	
O=C(O)c1nn[nH]c1Oc1ccc(-c2ccc3nccn3c2)cc1 [Example 27, 5-(4-(imidazo[1,2-a]pyridin-6-yl)phenoxy)-1H-1,2,3-triazole-4-carboxylic Acid]	6.70 to 7.00	
O=C(O)c1nn[nH]c1Oc1ccc(-c2ccccc2OC(F)F)cc1 [Example 28, 5-((2′-(difluoromethoxy)-[1,1′-biphenyl]-4-yl)oxy)-1H-1,2,3-triazole-4-carboxylic Acid]	6.70 to 7.00	
N#Cc1ccc(-c2ccc(Oc3nn[nH]c3C(=O)O)cc2)cc1 [Example 29, 5-((4′-cyano-[1,1′-biphenyl]-4-yl)oxy)-1H-1,2,3-triazole-4-carboxylic Acid]	6.70 to 7.00	
Cc1ccc(-c2ccc(Oc3[nH]nnc3C(=O)O)cc2)cc1 [Example 31, 5-((4′-methyl-[1,1′-biphenyl]-4-yl)oxy)-1H-1,2,3-triazole-4-carboxylic Acid]		> 7.00
CC(C)c1ccc(-c2ccc(Oc3[nH]nnc3C(=O)O)cc2)cc1 [Example 32, 5-((4′-isopropyl-[1,1′-biphenyl]-4-yl)oxy)-1H-1,2,3-triazole-4-carboxylic Acid]	> 7.00	
O=C(O)c1nn[nH]c1Oc1ccc(-c2ccc(F)c(Cl)c2)cc1 [Example 33, 5-((3′-chloro-4′-fluoro-[1,1′-biphenyl]-4-yl)oxy)-1H-1,2,3-triazole-4-carboxylic Acid]	> 7.00	
O=C(O)c1nn[nH]c1Oc1ccc(-c2cccc(F)c2F)cc1 [Example 34, 5-((2′,3′-difluoro-[1,1′-biphenyl]-4-yl)oxy)-1H-1,2,3-triazole-4-carboxylic Acid]	6.70 to 7.00	
CC(C)(C)c1ccc(-c2ccc(Oc3[nH]nnc3C(=O)O)cc2)cc1 [Example 35, 5-((4′-(tert-butyl)-[1,1′-biphenyl]-4-yl)oxy)-1H-1,2,3-triazole-4-carboxylic Acid]	6.70 to 7.00	
O=C(O)c1nn[nH]c1Oc1ccc(Cl)cc1 [Example 36, 5-(4-chlorophenoxy)-1H-1,2,3-triazole-4-carboxylic Acid]		> 7.00
O=C(O)c1nn[nH]c1Oc1ccc(-c2cnccn2)cc1 [Example 37, 5-(4-(pyrazin-2-yl)phenoxy)-1H-1,2,3-triazole-4-carboxylic Acid]	> 7.00	
O=C(O)c1nn[nH]c1Oc1ccc(-c2ccc(OC(F)F)cc2)cc1 [Example 39, 5-((4′-(difluoromethoxy)-[1,1′-biphenyl]-4-yl)oxy)-1H-1,2,3-triazole-4-carboxylic Acid]	6.70 to 7.00	
O=C(O)c1nn[nH]c1Oc1ccc(-c2cccc(OC(F)F)c2)cc1 [Example 40, 5-((3′-(difluoromethoxy)-[1,1′-biphenyl]-4-yl)oxy)-1H-1,2,3-triazole-4-carboxylic Acid]	> 7.00	
O=C(O)c1nn[nH]c1Oc1ccc(-c2ccoc2)cc1 [Example 41, 5-(4-(furan-3-yl)phenoxy)-1H-1,2,3-triazole-4-carboxylic Acid]	6.70 to 7.00	
